Here are results for 4 compounds from patent publication US20090131441A1, “Metabolites Of 2-Arylpropionic Acid Derivatives And Pharmaceutical Compositions Containing Them” (DOMPE phar.r.ma S.p.A., priority 2005, published 2009).

Some results are limits rather than exact numbers.

Series [1] can be described thus: T1/2 after single bolus i.v. administration in rat. Particulars: in vivo, iv; after single bolus i.v. administration in rat (15 mg/Kg); read-out: T½ (converted). The text has this:
Furthermore, the compounds of formula (I) have a pharmacokinetic profile particularly advantageous for the therapeutic use. In fact, as compared to the compounds of formula (III), the compounds of the invention, administered “in vivo” by the i.v. route, show a longer T1/2 associated to a reduced clearance time.
(§1) Table I and II show, as an example, the significant differences in T1/2 and protein binding (%) between metabolites of formula (I) and corresponding parent compounds of formula (III).

Series [2] can be described thus: in vitro binding to rat plasma proteins. Type of series: in vitro ADME. The note with it: compound concentration 10 μg/mL, read-out: Protein Binding (converted).
From the text: as §1

In series [3] the test system is IL-8 induced chemotaxis of human PMNs. Description: IL-8 induced PMN chemotaxis assay. The class given is cell-based. The note with it: read-out: inhibition of IL-8-induced PMN migration. As for the experimental part:
The compounds of the invention of formula (I) were evaluated in vitro for their ability to inhibit chemotaxis of polymorphonucleate leukocytes (hereinafter referred to as PMNs) and monocytes induced by the fractions of IL-8 and GRO-α and C5a and directly compared to the corresponding parent 4-isobutyl compounds of formula (III). For this purpose, in order to isolate the PMNs from heparinized human blood, taken from healthy adult volunteers, mononucleates were removed by means of sedimentation on dextran (according to the procedure disclosed by W. J. Ming et al., J. Immunol., 138, 1469, 1987) and red blood cells by a hypotonic solution. The cell vitality was calculated by exclusion with Trypan blue, whilst the ratio of the circulating polymorphonucleates was estimated on the cytocentrifugate after staining with Diff Quick. […]
The compounds of the invention in formula (I) were evaluated at a concentration ranging between 10^−6 and 10^−10 M; for this purpose they were added, at the same concentration, both to the lower pores and the upper pores of the microchamber. […]

For `CC(C)Cc1ccc([C@@H](C)C(=O)NCCCN2CCCCC2)cc1` [(R)-2-[(4-isobutyl)phenyl]-N-[3″-(N′-piperidino)propyl]propionamide, reference compound], the half-life in series [1] is 1 h. Moreover, the fraction unbound at 10 μg/mL in series [2] was 0.2.
Taken in the same sequence, the figures for `CC(C)Cc1ccc([C@@H](C)C(=O)NS(C)(=O)=O)cc1` [(R)-2-[(4-isobutyl)phenyl]propionyl methanesulfonamide, reference compound] were 0.5 h and less than 0.01.
On to `CC(Cc1ccc([C@@H](C)C(=O)NS(C)(=O)=O)cc1)C(=O)O` (stereo partly drawn) [Example 1, (2R) (2″ R, S) 2-[4′-(2″-carboxyprop-1-yl)phenyl]propionyl methanesulfonamide], for which the inhibition at 1 µM in series [3] (compound concentration 10^−6M) was 66 ± 8%. In series [3] (compound concentration 10^−8M), the inhibition at 0.01 µM was determined as 49 ± 9%. The half-life in series [1] is 2 h. The fraction unbound at 10 μg/mL in series [2] was 0.28.
As to `CC(Cc1ccc([C@@H](C)C(=O)NCCCN2CCCCC2)cc1)C(=O)O` (stereo partly shown) [Example 4], the half-life in series [1] is 2 h. For the same compound, the fraction unbound at 10 μg/mL in series [2] is 0.3.
